System: three MycP1 variants
Type: biochemical, M. tuberculosis, M. thermoresistible, M. smegmatis

HAlaValLysAlaAlaB(OH)2 [Compound 1]
inhibition (in words): poorer inhibition than compound 2

Source: publication PMC4120117 (Bioorganic & medicinal chemistry letters, 2014)
